According to ChEMBL document CHEMBL1671652, “Efficacy of piperacillin combined with the Penem beta-lactamase inhibitor BLI-489 in murine models of systemic infection” (2009):
Converted amounts (≈) assume the structure as drawn.

Experiments:
[1] = system: Klebsiella pneumoniae; assay: Antimicrobial activity against SHV-1and SHV-5 beta-lactamase producing Klebsiella pneumoniae GAR 7978 infected in CD-1 mouse treated 30 and 150 mins postinfection in presence of beta-lactamase inhibitor Tazobactam; format: functional
[2] = system: Klebsiella pneumoniae; assay: Antimicrobial activity against SHV-11 beta-lactamase producing Klebsiella pneumoniae GAR 7693 by broth microdilution method; format: functional
[3] = system: Salmonella typhimurium; assay: Antimicrobial activity against CTX-M-5 beta-lactamase producing Salmonella enterica serovar Typhimurium GC 4195 by broth microdilution method in presence of 8:1 ratio of compound to beta-lactamase inhibitor BLI-489; format: functional, Salmonella enterica subsp. enterica serovar Typhimurium
[4] = system: Klebsiella pneumoniae; assay: Antimicrobial activity against SHV-11beta-lactamase producing Klebsiella pneumoniae GAR 7693 infected in CD-1 mouse treated 30 and 150 mins postinfection in presence of beta-lactamase inhibitor Tazobactam; format: functional
[5] = system: Pseudomonas aeruginosa; assay: Antimicrobial activity against AmpC beta-lactamase producing Pseudomonas aeruginosa GC 1764 infected in CD-1 mouse treated 30 and 150 mins postinfection in presence of beta-lactamase inhibitor Tazobactam; format: functional
[6] = system: Escherichia coli; assay: Antimicrobial activity against OXA-1 beta-lactamase producing Escherichia coli GAR 5946 by broth microdilution method in presence of beta-lactamase inhibitor Tazobactam; format: functional
[7] = system: Pseudomonas aeruginosa; assay: Antimicrobial activity against AmpC beta-lactamase producing Pseudomonas aeruginosa GC 1764 infected in CD-1 mouse treated 30 and 150 mins postinfection in presence of 8:1 ratio of compound to beta-lactamase inhibitor BLI-489; format: functional
[8] = system: Klebsiella pneumoniae; assay: Antimicrobial activity against SHV-1and SHV-5 beta-lactamase producing Klebsiella pneumoniae GAR 7978 infected in CD-1 mouse treated 30 and 150 mins postinfection in presence of 8:1 ratio of compound to beta-lactamase inhibitor BLI-489; format: functional
[9] = system: Salmonella typhimurium; assay: Antimicrobial activity against CTX-M-5 beta-lactamase producing Salmonella enterica serovar Typhimurium GC 4195 infected in CD-1 mouse treated 30 and 150 mins postinfection in presence of beta-lactamase inhibitor Tazobactam; format: functional, Salmonella enterica subsp. enterica serovar Typhimurium
[10] = system: Staphylococcus aureus; assay: Antimicrobial activity against penicillinase producing Staphylococcus aureus GC 6468 infected in CD-1 mouse treated 30 and 150 mins postinfection in presence of 8:1 ratio of compound to beta-lactamase inhibitor BLI-489; format: functional
[11] = system: Escherichia coli; assay: Antimicrobial activity against TEM-1 beta-lactamase producing Escherichia coli GC 6265 infected in CD-1 mouse treated 30 mins postinfection in presence of 14:1 ratio of compound to beta-lactamase inhibitor BLI-489; format: functional; details: GC 6265, 0.5 h
[12] = system: Enterobacter cloacae; assay: Antimicrobial activity against AmpC beta-lactamase producing Enterobacter cloacae GC 4142 infected in CD-1 mouse treated 30 and 150 min postinfection in presence of 10:1 ratio of compound to beta-lactamase inhibitor BLI-489; format: functional
[13] = system: Escherichia coli; assay: Antimicrobial activity against OXA-1 beta-lactamase producing Escherichia coli GAR 5946 infected in CD-1 mouse treated 30 and 150 mins postinfection in presence of 8:1 ratio of compound to beta-lactamase inhibitor BLI-489; format: functional
[14] = system: Escherichia coli; assay: Antimicrobial activity against TEM-1 beta-lactamase producing Escherichia coli GC 6265 infected in CD-1 mouse treated 30 mins postinfection in presence of 8:1 ratio of compound to beta-lactamase inhibitor BLI-489; format: functional; details: GC 6265, 0.5 h
[15] = system: Escherichia coli; assay: Antimicrobial activity against TEM-1 beta-lactamase producing Escherichia coli GC 6265 infected in CD-1 mouse treated 30 mins postinfection in presence of 6:1 ratio of compound to beta-lactamase inhibitor BLI-489; format: functional; details: GC 6265, 0.5 h
[16] = system: Enterobacter cloacae; assay: Antimicrobial activity against AmpC beta-lactamase producing Enterobacter cloacae GC 4142 infected in CD-1 mouse treated 30 and 150 min postinfection in presence of 4:1 ratio of compound to beta-lactamase inhibitor BLI-489; format: functional
[17] = system: Staphylococcus aureus; assay: Antimicrobial activity against penicillinase producing Staphylococcus aureus GC 6468 infected in CD-1 mouse treated 30 and 150 mins postinfection in presence of beta-lactamase inhibitor Tazobactam; format: functional
[18] = system: Salmonella typhimurium; assay: Antimicrobial activity against CTX-M-5 beta-lactamase producing Salmonella enterica serovar Typhimurium GC 4195 infected in CD-1 mouse treated 30 and 150 mins postinfection; format: functional, Salmonella enterica subsp. enterica serovar Typhimurium
[19] = system: Klebsiella pneumoniae; assay: Antimicrobial activity against SHV-11 beta-lactamase producing Klebsiella pneumoniae GAR 7693 by broth microdilution method in presence of 8:1 ratio of compound to beta-lactamase inhibitor BLI-489; format: functional
[20] = system: Salmonella typhimurium; assay: Antimicrobial activity against CTX-M-5 beta-lactamase producing Salmonella enterica serovar Typhimurium GC 4195 by broth microdilution method; format: functional, Salmonella enterica subsp. enterica serovar Typhimurium
[21] = system: Klebsiella pneumoniae; assay: Antimicrobial activity against SHV-1and SHV-5 beta-lactamase producing Klebsiella pneumoniae GAR 7978 infected in CD-1 mouse treated 30 and 150 mins postinfection; format: functional
[22] = system: Enterobacter cloacae; assay: Antimicrobial activity against AmpC beta-lactamase producing Enterobacter cloacae GC 4142 by broth microdilution method in presence of 8:1 ratio of compound to beta-lactamase inhibitor BLI-489; format: functional
[23] = system: Escherichia coli; assay: Antimicrobial activity against TEM-10 beta-lactamase producing Escherichia coli GC 2022 infected in CD-1 mouse treated 30 mins postinfection in presence of 8:1 ratio of compound to beta-lactamase inhibitor BLI-489; format: functional; details: GC 2022, 0.5 h
[24] = system: Klebsiella pneumoniae; assay: Antimicrobial activity against SHV-11 beta-lactamase producing Klebsiella pneumoniae GAR 7693 infected in CD-1 mouse treated 30 and 150 mins postinfection; format: functional
[25] = system: Salmonella typhimurium; assay: Antimicrobial activity against CTX-M-5 beta-lactamase producing Salmonella enterica serovar Typhimurium GC 4195 infected in CD-1 mouse treated 30 and 150 mins postinfection in presence of 8:1 ratio of compound to beta-lactamase inhibitor BLI-489; format: functional, Salmonella enterica subsp. enterica serovar Typhimurium
[26] = system: Escherichia coli; assay: Antimicrobial activity against ACT-1 beta-lactamase producing Escherichia coli GC 2814 by broth microdilution method; format: functional
[27] = system: Escherichia coli; assay: Antimicrobial activity against OXA-1 beta-lactamase producing Escherichia coli GAR 5946 by broth microdilution method; format: functional
[28] = system: Escherichia coli; assay: Antimicrobial activity against TEM-1 beta-lactamase producing Escherichia coli GC 6265 by broth microdilution method in presence of 8:1 ratio of compound to beta-lactamase inhibitor BLI-489; format: functional
[29] = system: Pseudomonas aeruginosa; assay: Antimicrobial activity against AmpC beta-lactamase producing Pseudomonas aeruginosa GC 1764 by broth microdilution method; format: functional
[30] = system: Klebsiella pneumoniae; assay: Antimicrobial activity against SHV-11beta-lactamase producing Klebsiella pneumoniae GAR 7693 infected in CD-1 mouse treated 30 and 150 mins postinfection in presence of 8:1 ratio of compound to beta-lactamase inhibitor BLI-489; format: functional
[31] = system: Enterobacter cloacae; assay: Antimicrobial activity against AmpC beta-lactamase producing Enterobacter cloacae GC 4142 infected in CD-1 mouse treated 30 and 150 min postinfection in presence of 14:1 ratio of compound to beta-lactamase inhibitor BLI-489; format: functional
[32] = system: Enterobacter cloacae; assay: Antimicrobial activity against AmpC beta-lactamase producing Enterobacter cloacae GC 4142 by broth microdilution method in presence of beta-lactamase inhibitor Tazobactam; format: functional
[33] = system: Escherichia coli; assay: Antimicrobial activity against TEM-1 beta-lactamase producing Escherichia coli GC 6265 infected in CD-1 mouse treated 30 mins postinfection in presence of 12:1 ratio of compound to beta-lactamase inhibitor BLI-489; format: functional; details: GC 6265, 0.5 h
[34] = system: Escherichia coli; assay: Antimicrobial activity against TEM-1 beta-lactamase producing Escherichia coli GC 6265 by broth microdilution method; format: functional
[35] = system: Escherichia coli; assay: Antimicrobial activity against ACT-1 beta-lactamase producing Escherichia coli GC 2814 infected in CD-1 mouse treated 30 and 150 mins postinfection in presence of beta-lactamase inhibitor Tazobactam; format: functional

CCN1CCN(C(=O)N[C@@H](C(=O)N[C@@H]2C(=O)N3[C@@H]2SC(C)(C)[C@@H]3C(=O)O)c2ccccc2)C(=O)C1=O [PIPERACILLIN]
ED50 [1]: 58 mg/kg
MIC [2]: 2 µg/mL (≈ 3.86 µM)
MIC [3]: > 64 µg/mL
ED50 [4]: 24 mg/kg
ED50 [5]: 246 mg/kg
MIC [6]: 0.25 µg/mL
ED50 [7]: 103 mg/kg
ED50 [8]: 28 mg/kg
ED50 [9]: 152 mg/kg
ED50 [10]: 12 mg/kg
ED50 [11]: 16 mg/kg
ED50 [12]: 47 mg/kg
ED50 [13]: 86 mg/kg
ED50 [14]: 12 mg/kg
ED50 [15]: 12 mg/kg
ED50 [16]: 30 mg/kg
ED50 [17]: 16 mg/kg
ED50 [18]: 1120 mg/kg
MIC [19]: > 64 µg/mL
MIC [20]: 8 µg/mL (≈ 15.5 µM)
ED50 [21]: 245 mg/kg
MIC [22]: > 64 µg/mL
ED50 [23]: 40 mg/kg
ED50 [24]: 193 mg/kg
ED50 [25]: 45 mg/kg
MIC [26]: 2 µg/mL (≈ 3.86 µM)
MIC [27]: 2 µg/mL (≈ 3.86 µM)
MIC [28]: 4 µg/mL
MIC [29]: > 64 µg/mL
ED50 [30]: 23 mg/kg
ED50 [31]: 69 mg/kg
MIC [32]: 4 µg/mL
ED50 [33]: 11 mg/kg
MIC [34]: > 64 µg/mL
ED50 [35]: 45 mg/kg
